Assay results taken from ChEMBL document CHEMBL1255270, “Relationship between antibiotic use and incidence of MexXY-OprM overproducers among clinical isolates of Pseudomonas aeruginosa” (2008).
In brackets after ≈: the same amount, converted by molar mass.

Assays:
Format in all cases: functional
[1] = system: Pseudomonas aeruginosa; assay: Antimicrobial activity against MexXY-OprM-overproducing Pseudomonas aeruginosa PAO1 harboring MexY agrW mutant and MexZ mutant gene selected after 8 ug/ml of amikacin exposure
[2] = system: Pseudomonas aeruginosa; assay: Antimicrobial activity against MexXY-OprM-overproducing Pseudomonas aeruginosa PAO1 harboring MexY agrZ mutant and MexZ mutant gene selected after 1 ug/ml of tobramycin exposure
[3] = system: Pseudomonas aeruginosa; assay: Antimicrobial activity against MexXY-OprM-overproducing Pseudomonas aeruginosa PAO1 harboring MexY agrZ mutant and MexZ mutant gene selected after 4ug/ml of gentamycin exposure
[4] = system: Pseudomonas aeruginosa; assay: Antimicrobial activity against MexXY-OprM-overproducing Pseudomonas aeruginosa PAO1 harboring MexY agrW mutant and MexZ mutant gene selected after 1 ug/ml of oflaxacin exposure
[5] = system: Pseudomonas aeruginosa; assay: Antimicrobial activity against MexXY-OprM-overproducing Pseudomonas aeruginosa PAO1 harboring MexY agrZ mutant and MexZ mutant gene selected after 1 ug/ml of Norfloxacin exposure
[6] = system: Pseudomonas aeruginosa; assay: Antimicrobial activity against MexXY-OprM-overproducing Pseudomonas aeruginosa PAO1 harboring MexY agrW mutant and MexZ mutant gene selected after 0.25 ug/ml of ciprofloxacin exposure
[7] = system: Pseudomonas aeruginosa; assay: Antimicrobial activity against MexXY-OprM-overproducing Pseudomonas aeruginosa PAO1 harboring MexY agrW mutant and MexZ mutant gene selected after 4 ug/ml of cefepime exposure
[8] = system: Pseudomonas aeruginosa; assay: Antimicrobial activity against MexXY-OprM-overproducing Pseudomonas aeruginosa PAO1 harboring MexY and MexZ mutant gene selected after 8 ug/ml of amikacin exposure
[9] = system: Pseudomonas aeruginosa; assay: Antimicrobial activity against MexXY-OprM-overproducing Pseudomonas aeruginosa PAO1 harboring MexY and MexZ mutant gene selected after 0.25 ug/ml of ciprofloxacin exposure
[10] = system: Pseudomonas aeruginosa; assay: Antimicrobial activity against MexXY-OprM-overproducing Pseudomonas aeruginosa PAO1 harboring MexY and MexZ mutant gene selected after 4 ug/ml of cefepime exposure
[11] = system: Pseudomonas aeruginosa; assay: Antimicrobial activity against mexXY-OprM-overproducing Pseudomonas aeruginosa PAO1
[12] = system: Pseudomonas aeruginosa; assay: Antimicrobial activity against mexXY-OprM-overproducing Pseudomonas aeruginosa clinical isolate
[13] = system: Pseudomonas aeruginosa; assay: Antimicrobial activity against mexXY-OprM-overproducing Pseudomonas aeruginosa isolate PA/XY assessed as zone of inhibition by disk diffusion method

Row | Compound | MIC [1] [µg/mL] | MIC [2] [µg/mL] | MIC [3] [µg/mL] | MIC [4] [µg/mL] | MIC [5] [µg/mL] | MIC [6] [µg/mL] | MIC [7] [µg/mL] | MIC [8] [µg/mL] | MIC [9] [µg/mL] | MIC [10] [µg/mL] | MIC [11] [µg/mL] | MIC [12] [µg/mL] | inhibition zone (IZ) [13] [mm]
1 | CO/N=C(\C(=O)N[C@@H]1C(=O)N2C(C(=O)[O-])=C(C[N+]3(C)CCCC3)CS[C@H]12)c1csc(N)n1 | 4 | 4 | 4 | 4 | 4 | 4 | 4 | 4 | 4 | 4 | 2 (≈ 4.16 µM) | – | –
2 | NCC[C@H](O)C(=O)N[C@@H]1C[C@H](N)[C@@H](O[C@H]2O[C@H](CN)[C@@H](O)[C@H](O)[C@H]2O)[C@H](O)[C@H]1O[C@H]1O[C@H](CO)[C@@H](O)[C@H](N)[C@H]1O [AMIKACIN] | 8 | 8 | 8 | 8 | 8 | 8 | 8 | 8 | 8 | 8 | 4 (≈ 6.83 µM) | 4 (≈ 6.83 µM) | <20
3 | O=C(O)c1cn(C2CC2)c2cc(N3CCNCC3)c(F)cc2c1=O [CIPROFLOXACIN] | – | – | – | – | – | – | – | – | – | – | 0.12 (≈ 0.362 µM) | – | –
4 | NC[C@H]1O[C@H](O[C@H]2[C@H](O)[C@@H](O[C@H]3O[C@H](CO)[C@@H](O)[C@H](N)[C@H]3O)[C@H](N)C[C@@H]2N)[C@H](N)C[C@@H]1O [TOBRAMYCIN] | 2 | 2 | 2 | 2 | 2 | 2 | 2 | 2 | 2 | 2 | 1 (≈ 2.14 µM) | 1 (≈ 2.14 µM) | <20
5 | GENTAMICIN | 8 | 8 | 8 | 8 | 8 | 8 | 8 | 8 | 8 | 8 | 4 | 2 | < 20
